Laboratory results taken from US11390617B2, “Methods of treating non-Hodgkin lymphoma using 2-(2,6-dioxopiperidin-3-yl)-4-((2-fluoro-4-((3-morpholinoazetidin-1-yl)methyl)benzyl)amino)isoindoline-1,3-dione” (Celgene Corporation, priority 2019, dated 2022).

Assays:
Test in all cases: NHL cell line viability/apoptosis 384-well flow cytometry assay
Assay type in all cases: cell-based
DB = settings: 120 hours
Method in brief: (§1)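 Viability and apoptosis measured after 5 days of compound (0.00015 to 10 μM) by Annexin V-based flow cytometry. Values come from variable-slope curve fits normalized to DMSO control.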

Farage = Farage (DLBCL), 120 hours
Method in brief: as §1

HT = HT (DLBCL), 120 hours
Method in brief: as §1

KARPAS-1106P = KARPAS-1106P (DLBCL), 120 hours
Method in brief: as §1

Mino = Mino (MCL), 120 hours
Method in brief: as §1

Pfeiffer = Pfeiffer (DLBCL), 120 hours
Method in brief: as §1

RIVA = RIVA (DLBCL), 120 hours
Method in brief: as §1

Rec-1 = Rec-1 (MCL), 120 hours
Method in brief: as §1

SU-DHL-2 = SU-DHL-2 (DLBCL), 120 hours
Method in brief: as §1

SU-DHL-4 = SU-DHL-4 (DLBCL), 120 hours
Method in brief: as §1

SU-DHL-5 = SU-DHL-5 (DLBCL), 120 hours
Method in brief: as §1

WSU-DLCL2 = WSU-DLCL2 (DLBCL), 120 hours
Method in brief: as §1

[1] = Homo sapiens, read-out: IC50 (% Viable Cells)
[2] = read-out: IC50 (% Viable Cells)

Compound: O=C1CC[C@H](N2C(=O)c3cccc(NCc4ccc(CN5CC(N6CCOCC6)C5)cc4F)c3C2=O)C(=O)N1 [Compound 1, (S)-2-(2,6-dioxopiperidin-3-yl)-4-((2-fluoro-4-((3-morpholinoazetidin-1-yl)methyl)benzyl)amino)isoindoline-1,3-dione]
- AUC (% Viable Cells) (DB): 941.4
- AUC (Apoptosis) (DB): 80.31
- Emax (% Viable Cells) (DB): 89.46%
- Ymax (Apoptosis) (DB): 11.62%
- EC50 (DB; Homo sapiens): 68.8 nM
- IC50 (DB; [1]): 10000 nM
- AUC (% Viable Cells) (Farage): 10.16
- AUC (Apoptosis) (Farage): 728.7
- EC50 (Farage): 30.2 nM
- Emax (% Viable Cells) (Farage): 0.7936%
- Ymax (Apoptosis) (Farage): 84.17%
- IC50 (Farage; [2]): 2.38 nM
- AUC (% Viable Cells) (HT): 396.7
- AUC (Apoptosis) (HT): 225.3
- Emax (% Viable Cells) (HT): 30.39%
- Ymax (Apoptosis) (HT): 25.16%
- EC50 (HT; Homo sapiens): 66.2 nM
- IC50 (HT; [1]): 319 nM
- EC50 (KARPAS-1106P; Homo sapiens): 91.8 nM
- IC50 (KARPAS-1106P; [1]): 17.5 nM
- AUC (% Viable Cells) (KARPAS-1106P): 22.22
- AUC (Apoptosis) (KARPAS-1106P): 885.2
- Emax (% Viable Cells) (KARPAS-1106P): 0.1698%
- Ymax (Apoptosis) (KARPAS-1106P): 97.08%
- EC50 (Mino; Homo sapiens): 2.05 nM
- IC50 (Mino; [1]): 5.78 nM
- AUC (% Viable Cells) (Mino): 62.67
- AUC (Apoptosis) (Mino): 968.2
- Emax (% Viable Cells) (Mino): 5.638%
- Ymax (Apoptosis) (Mino): 97.04%
- EC50 (Pfeiffer; Homo sapiens): 13.6 nM
- IC50 (Pfeiffer; [1]): 47.7 nM
- AUC (% Viable Cells) (Pfeiffer): 313.5
- AUC (Apoptosis) (Pfeiffer): 493.3
- Emax (% Viable Cells) (Pfeiffer): 24.49%
- Ymax (Apoptosis) (Pfeiffer): 51.82%
- AUC (% Viable Cells) (RIVA): 452.6
- AUC (Apoptosis) (RIVA): 242.8
- EC50 (RIVA): 17.7 nM
- Emax (% Viable Cells) (RIVA): 36.65%
- Ymax (Apoptosis) (RIVA): 27.92%
- IC50 (RIVA; [2]): 114 nM
- EC50 (Rec-1; Homo sapiens, Rec1): 9.26 nM
- IC50 (Rec-1; Homo sapiens, Rec1, read-out: IC50 (% Viable Cells)): 32 nM
- AUC (% Viable Cells) (Rec-1): 281.8
- AUC (Apoptosis) (Rec-1): 508.5
- Emax (% Viable Cells) (Rec-1): 21.04%
- Ymax (Apoptosis) (Rec-1): 57.27%
- EC50 (SU-DHL-2; Homo sapiens): 6.24 nM
- IC50 (SU-DHL-2; [1]): 1.26 nM
- AUC (% Viable Cells) (SU-DHL-2): 5.586
- AUC (Apoptosis) (SU-DHL-2): 928.4
- Emax (% Viable Cells) (SU-DHL-2): 0.2145%
- Ymax (Apoptosis) (SU-DHL-2): 95.98%
- EC50 (SU-DHL-4; Homo sapiens): 782 nM
- IC50 (SU-DHL-4; [1]): 278 nM
- AUC (% Viable Cells) (SU-DHL-4): 296.2
- AUC (Apoptosis) (SU-DHL-4): 209
- Emax (% Viable Cells) (SU-DHL-4): 23.44%
- Ymax (Apoptosis) (SU-DHL-4): 25.33%
- EC50 (SU-DHL-5; Homo sapiens): 3.6 nM
- IC50 (SU-DHL-5; [1]): 2.39 nM
- AUC (% Viable Cells) (SU-DHL-5): 1.873
- AUC (Apoptosis) (SU-DHL-5): 934.1
- Emax (% Viable Cells) (SU-DHL-5): 0.1398%
- Ymax (Apoptosis) (SU-DHL-5): 95.23%
- EC50 (WSU-DLCL2; Homo sapiens, WSUDLCL2): 84.7 nM
- IC50 (WSU-DLCL2; Homo sapiens, WSUDLCL2, read-out: IC50 (% Viable Cells)): 16.9 nM
- AUC (% Viable Cells) (WSU-DLCL2): 36.7
- AUC (Apoptosis) (WSU-DLCL2): 858.9
- Emax (% Viable Cells) (WSU-DLCL2): 1.387%
- Ymax (Apoptosis) (WSU-DLCL2): 92.1%
